In PubChem BioAssay AID192 (DTP/NCI, 2004):
Where “and” joins values, the source holds several entries; their conditions need not be identical. Identical values can stand only once. Toxic doses and inconclusive results are not listed.

Test system: BDF1 mice, B16 melanoma ip, median survival T/C
Assay: NCI In Vivo Anticancer Drug Screen. Data for tumor model B16 Melanoma (intraperitoneal) in B6D2F1 (BDF1) mice
Conditions: endpoint: median survival time, higher = longer survival
Procedure, shortened: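 Read-out: survival or tumor size, given as treated/control ratio. Controls received vehicle only; animals bore transplantable tumors.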

[1] = dose: 0.75 mg/kg/injection, schedule: Q01DX009 (ip), vehicle: saline with Tween-80
[2] = dose: 6.25 mg/kg/injection, schedule: Q01DX009 (ip), vehicle: Klucel (hydroxypropylcellulose) (HPC)
[3] = dose: 12.5 mg/kg/injection, schedule: Q01DX009 (ip), vehicle: Klucel (hydroxypropylcellulose) (HPC)
[4] = dose: 25.0 mg/kg/injection, schedule: Q01DX009 (ip), vehicle: Klucel (hydroxypropylcellulose) (HPC)
[5] = dose: 50.0 mg/kg/injection, schedule: Q01DX009 (ip), vehicle: Klucel (hydroxypropylcellulose) (HPC)
[6] = dose: 100.0 mg/kg/injection, schedule: Q01DX009 (ip), vehicle: Klucel (hydroxypropylcellulose) (HPC)
[7] = dose: 200.0 mg/kg/injection, schedule: Q01DX009 (ip), vehicle: Klucel (hydroxypropylcellulose) (HPC)
[8] = dose: 1.5 mg/kg/injection, schedule: Q01DX009 (ip), vehicle: saline with Tween-80
[9] = dose: 3.0 mg/kg/injection, schedule: Q01DX009 (ip), vehicle: saline with Tween-80
[10] = dose: 6.0 mg/kg/injection, schedule: Q01DX009 (ip), vehicle: saline with Tween-80
[11] = dose: 25.0 mg/kg/injection, schedule: Q01DX009 (ip), vehicle: saline
[12] = dose: 50.0 mg/kg/injection, schedule: Q01DX009 (ip), vehicle: saline
[13] = dose: 50.0 mg/kg/injection, schedule: Q01DX009 (ip), vehicle: saline with Tween-80
[14] = dose: 100.0 mg/kg/injection, schedule: Q01DX009 (ip), vehicle: saline with Tween-80
[15] = dose: 200.0 mg/kg/injection, schedule: Q01DX009 (ip), vehicle: saline with Tween-80
[16] = dose: 400.0 mg/kg/injection, schedule: Q01DX009 (ip), vehicle: Klucel (hydroxypropylcellulose) (HPC)
[17] = dose: 5.0 mg/kg/injection, schedule: Q01DX009 (ip), vehicle: saline with Tween-80
[18] = dose: 10.0 mg/kg/injection, schedule: Q01DX009 (ip), vehicle: saline with Tween-80
[19] = dose: 20.0 mg/kg/injection, schedule: Q01DX009 (ip), vehicle: saline with Tween-80

CCCC[S][Sn]([CH2]CCC)([CH2]CCC)[S]CCCC
T/C (dose: 0.19 mg/kg/injection, schedule: Q01DX009 (ip), vehicle: saline with Tween-80): 98 % of control
T/C (dose: 0.38 mg/kg/injection, schedule: Q01DX009 (ip), vehicle: saline with Tween-80): 98 % of control
T/C [1]: 99 % of control

O=C1C=CC(=O)c2c(O)c(CBr)c(CBr)c(O)c21
T/C [2]: 102 % of control
T/C [3]: 101 % of control
T/C [4]: 100 % of control
T/C [5]: 94 % of control

O=C(O)c1cc(-c2ccc(Cl)cc2)nc2c(Cl)cccc12
T/C [6]: 100 % of control

CCOC(=O)/C(C(C)=O)=C(/O)c1ccc(OC(F)(F)C(F)Cl)cc1OC(F)(F)C(F)Cl.CCOC(=O)/C(C(C)=O)=C(/O)c1ccc(OC(F)(F)C(F)Cl)cc1OC(F)(F)C(F)Cl.[Cu] (stereo not drawn)
T/C [3]: 89 % of control
T/C [4]: 88 % of control

CC(=O)c1ccccc1I
T/C [4]: 102 % of control and 113 % of control
T/C [5]: 105 % of control and 106 % of control
T/C [6]: 105 % of control and 106 % of control
T/C [7]: 102 % of control and 106 % of control

Cc1c(N=CN(C)C)c(=O)n(-c2ccccc2)n1C
T/C (dose: 97.0 mg/kg/injection, schedule: Q04DX003 (ip), vehicle: Klucel (hydroxypropylcellulose) (HPC)): 97 % of control
T/C (dose: 187.5 mg/kg/injection, schedule: Q04DX003 (ip), vehicle: Klucel (hydroxypropylcellulose) (HPC)): 105 % of control
T/C (dose: 375.0 mg/kg/injection, schedule: Q04DX003 (ip), vehicle: Klucel (hydroxypropylcellulose) (HPC)): 87 % of control

O=S(=O)(O)SCCNCCCCCC1CCCCC1
T/C [1]: 90 % of control
T/C [8]: 95 % of control
T/C [9]: 93 % of control
T/C [10]: 104 % of control
T/C (dose: 12.0 mg/kg/injection, schedule: Q01DX009 (ip), vehicle: saline with Tween-80): 100 % of control

Nc1ncnc2nc[nH]c12
T/C (dose: 32.0 mg/kg/injection, schedule: Q01DX009 (ip), vehicle: Klucel (hydroxypropylcellulose) (HPC)): 97 % of control
T/C (dose: 64.0 mg/kg/injection, schedule: Q01DX009 (ip), vehicle: Klucel (hydroxypropylcellulose) (HPC)): 98 % of control
T/C (dose: 64.0 mg/kg/injection, schedule: Q01DX009 (ip), vehicle: saline with Tween-80): 98 % of control
T/C (dose: 128.0 mg/kg/injection, schedule: Q01DX009 (ip), vehicle: Klucel (hydroxypropylcellulose) (HPC)): 89 % of control

Cc1ccc(C(=O)NC2C(=O)NC(C(C)C)C(=O)N3CCCC3C(=O)N(C)CC(=O)N(C)C(C(C)C)C(=O)OC2C)c2c1Oc1c(c(C(=O)NC3C(=O)NC(C(C)C)C(=O)N4CCCC4C(=O)N(C)CC(=O)N(C)C(C(C)C)C(=O)OC3C)c3nc(-c4ccccc4)c(=O)oc3c1C)N2 (stereo not drawn)
T/C (dose: 0.13 mg/kg/injection, schedule: Q04DX003 (ip), vehicle: saline + alcohol): 124 % of control
T/C (dose: 0.13 mg/kg/injection, schedule: Q04DX003 (ip), vehicle: water): 155 % of control
T/C (dose: 0.25 mg/kg/injection, schedule: Q04DX003 (ip), vehicle: saline + alcohol): 152 % of control
T/C (dose: 0.5 mg/kg/injection, schedule: Q04DX003 (ip), vehicle: saline + alcohol): 156 % of control
T/C (dose: 0.5 mg/kg/injection, schedule: Q04DX003 (ip), vehicle: water): 163 % of control
T/C (dose: 1.0 mg/kg/injection, schedule: Q04DX003 (ip), vehicle: saline + alcohol): 191 % of control
T/C (dose: 1.0 mg/kg/injection, schedule: Q04DX003 (ip), vehicle: water): 173 % of control

CCN1Cc2ccc(O)cc2C1
T/C [11]: 98 % of control
T/C [12]: 100 % of control
T/C (dose: 100.0 mg/kg/injection, schedule: Q01DX009 (ip), vehicle: saline): 97 % of control

OC(CC1(O)C(F)(F)C(F)(F)C1(F)F)c1ccccc1 (stereo not drawn)
T/C [13]: 107 % of control
T/C [14]: 110 % of control
T/C [15]: 94 % of control

Cc1ccc(NC(=O)c2ccccc2)c(C)c1
T/C [13]: 95 % of control
T/C (dose: 50.0 mg/kg/injection, schedule: Q04DX003 (ip), vehicle: saline with Tween-80): 97 % of control
T/C [14]: 105 % of control
T/C (dose: 100.0 mg/kg/injection, schedule: Q04DX003 (ip), vehicle: saline with Tween-80): 100 % of control
T/C [15]: 92 % of control
T/C (dose: 200.0 mg/kg/injection, schedule: Q04DX003 (ip), vehicle: saline with Tween-80): 90 % of control

O=C1NC(c2c(Cl)cccc2Cl)Nc2ccccc21 (stereo not drawn)
T/C [6]: 96 % of control
T/C [7]: 103 % of control
T/C [16]: 90 % of control

COC(=O)[C@@H]1[C@H](O)[C@H](C)[C@H](O)[C@@](C)(O)/C=C\C=C(C)C(=O)Nc2c(C)c(OC(C)=O)c3c(c2O)C(=O)C(C)=C2OCOC(=C23)C(C)=C[C@@](C)(O)[C@H](O)[C@@H](C)[C@H]1OC(C)=O
T/C [2]: 106 % of control
T/C [3]: 99 % of control
T/C [4]: 90 % of control
T/C [5]: 91 % of control
T/C (dose: 75.0 mg/kg/injection, schedule: Q01DX009 (ip), vehicle: saline with Tween-80): 97 % of control
T/C [6]: 95 % of control
T/C (dose: 150.0 mg/kg/injection, schedule: Q01DX009 (ip), vehicle: saline with Tween-80): 91 % of control
T/C (dose: 300.0 mg/kg/injection, schedule: Q01DX009 (ip), vehicle: saline with Tween-80): 87 % of control

FC(F)(F)C(F)(Cl)C(Cl)(Cl)C(F)(F)F (stereo not drawn)
T/C (dose: 100.0 mg/kg/injection, schedule: Q04DX003 (ip), vehicle: saline): 92 % of control
T/C (dose: 200.0 mg/kg/injection, schedule: Q04DX003 (ip), vehicle: saline): 104 % of control
T/C (dose: 400.0 mg/kg/injection, schedule: Q04DX003 (ip), vehicle: saline): 97 % of control

Cn1c(N)c(N=Nc2ccccc2Cl)c(=O)n(C)c1=O
T/C (dose: 6.25 mg/kg/injection, schedule: Q01DX009 (ip), vehicle: saline): 110 % of control
T/C (dose: 12.5 mg/kg/injection, schedule: Q01DX009 (ip), vehicle: saline): 105 % of control
T/C [11]: 104 % of control
T/C [13]: 86 % of control
T/C [12]: 110 % of control

CC(C)C(Br)C(=O)NCC(=O)O (stereo not drawn)
T/C (dose: 12.5 mg/kg/injection, schedule: Q01DX009 (ip), vehicle: saline with Tween-80): 101 % of control
T/C (dose: 25.0 mg/kg/injection, schedule: Q01DX009 (ip), vehicle: saline with Tween-80): 95 % of control
T/C [13]: 102 % of control

Cc1cc(C)[c]([Hg][Cl])c(C)c1
T/C [8]: 110 % of control
T/C [9]: 98 % of control
T/C [10]: 99 % of control
T/C (dose: 6.25 mg/kg/injection, schedule: Q01DX009 (ip), vehicle: saline with Tween-80): 88 % of control

O=C(/C=C/C(=O)Oc1ccc(Cl)cc1)Oc1ccc(Cl)cc1
T/C [6]: 94 % of control
T/C [7]: 94 % of control

Clc1ccc2c3c(cccc13)CC2
T/C [17]: 87 % of control
T/C [18]: 92 % of control
T/C [19]: 87 % of control
T/C (dose: 40.0 mg/kg/injection, schedule: Q01DX009 (ip), vehicle: saline with Tween-80): 87 % of control

CCC(C)C1NC(=O)C(NC(=O)c2c3nc4c(C(=O)NC5C(=O)NC(C(C)CC)C(=O)N6CCCC6C(=O)N(C)CC(=O)N(C)C(C(C)C)C(=O)OC5C)cc(N)c(C)c4oc-3c(C)c(=O)c2N)C(C)OC(=O)C(C(C)C)N(C)C(=O)CN(C)C(=O)C2CCCN2C1=O (stereo not drawn)
T/C (dose: 12.5 micrograms/kg/injection, schedule: Q01DX009 (ip), vehicle: water): 110 % of control
T/C (dose: 25.0 micrograms/kg/injection, schedule: Q01DX009 (ip), vehicle: water): 104 % of control
T/C (dose: 118.0 micrograms/kg/injection, schedule: Q01DX009 (ip), vehicle: water): 161 % of control
T/C (dose: 400.0 micrograms/kg/injection, schedule: Q01DX009 (ip), vehicle: water): 159 % of control

C[n+]1cc2c3ccccc3c(N)cc2c2ccccc21
T/C (dose: 3.13 mg/kg/injection, schedule: Q01DX009 (ip), vehicle: saline): 106 % of control

CN(C)S(=O)(=O)Nc1cc(Cl)c(NS(=O)(=O)N(C)C)cc1Cl
T/C [6]: 92 % of control
T/C [7]: 100 % of control
T/C [16]: 89 % of control

CC[C@@H]1C[C@H]2CC3c4[nH]c5ccccc5c4CCN(C2)C31
T/C [17]: 110 % of control
T/C [18]: 107 % of control
T/C [19]: 97 % of control
